# Results: patent US20160053120A1, “AZO DYE USED FOR A COLOR FILTER OF A LCD” (DOW GLOBAL TECHNOLOGIES LLC, priority 2013, published 2016)
# Legend:
# [1] = Solubility in cyclohexanone at 25° C.; assay type: physicochemical
# [2] = Thermal stability of polymer film (ΔEab before and after hard baking at 200° C. for 1 hour); assay type: physicochemical; conditions: dye in acrylic resin film, baked at 200° C. under air for 1 hour; smaller ΔEab = better heat resistance
# Protocol: The obtained dry film was baked at 200° C. under air for 1 hour to evaluate heat resistance. Optical performance measured by the difference between chromaticity coordinates of before and after baking (ΔEab value) was 4.9. A smaller ΔEab value indicates better heat resistance.
# The wet films after spin coating are dried in oven at 80° C. for 30 minutes and then soft baked at 150° C. for 15 minutes. The chromaticity coordinates (L, a, b) are recorded with UltraScan Pro (Hunterlab) colorimeter. D65 light source is used and results are based on CIE Lab coordinates. After that the films are hard baked at target temperature (200° C.) for lhour and the new chromaticity coordinates (L′, a′, b′) are recorded with the method above. The thermal stability is indicated by the difference of chromaticity coordinate before and after hard baking represented by the following formula;
# ΔE=√{square root over ((L−L′^2+(a−a′)^2+(b−b′)^2)}{square root over ((L−L′^2+(a−a′)^2+(b−b′)^2)}.
compound,measurement,setting,value
"CC1=NN(c2ccccc2)C(=O)C1/N=N/c1ccccc1 (stereo not drawn) [Example 2, C.I. solvent yellow 16]",Solubility in cyclohexanone at 25° C. (wt %),[1],6.4 wt %
same,Thermal stability at 200° C. (ΔEab),[2],43
"Cc1ccccc1/N=N/c1ccc(/N=N/c2c(O)ccc3ccccc23)c(C)c1 [Example 3, C.I. solvent red 24]",Solubility in cyclohexanone at 25° C. (wt %),[1],4.3 wt %
same,Thermal stability at 200° C. (ΔEab),[2],15
"Oc1ccc2ccccc2c1/N=N/c1ccccc1 [Example 4, C.I. solvent yellow 14]",Solubility in cyclohexanone at 25° C. (wt %),[1],6.4 wt %
same,Thermal stability at 200° C. (ΔEab),[2],64
